Reference: patent publication US11247985B2, “Phenyl indole allosteric inhibitors of P97 ATPase” (University of Pittsburgh—Of the Commonwealth System of …, priority 2015, dated 2022)

molecular target: p97 ATPase WT (Homo sapiens (Human), UniProt P55072); assay: p97 ADP-Glo assay; type: biochemical; conditions: Table 3; read-out: ADPGlo IC50
Text: ADP-Glo™ (Promega Corp.) is a bioluminescent, homogeneous assay that measures ADP formed from a biochemical reactions. Because of its high sensitivity, the assay is suitable for monitoring enzyme activities at very early substrate conversions requiring very low amount of enzymes.
The ADP-Glo assay can be conducted as described in Chou, T.-F.; Bulfer, S. L.; Weihl, C.

p97 ATPase WT, sequence (P55072 whole entry): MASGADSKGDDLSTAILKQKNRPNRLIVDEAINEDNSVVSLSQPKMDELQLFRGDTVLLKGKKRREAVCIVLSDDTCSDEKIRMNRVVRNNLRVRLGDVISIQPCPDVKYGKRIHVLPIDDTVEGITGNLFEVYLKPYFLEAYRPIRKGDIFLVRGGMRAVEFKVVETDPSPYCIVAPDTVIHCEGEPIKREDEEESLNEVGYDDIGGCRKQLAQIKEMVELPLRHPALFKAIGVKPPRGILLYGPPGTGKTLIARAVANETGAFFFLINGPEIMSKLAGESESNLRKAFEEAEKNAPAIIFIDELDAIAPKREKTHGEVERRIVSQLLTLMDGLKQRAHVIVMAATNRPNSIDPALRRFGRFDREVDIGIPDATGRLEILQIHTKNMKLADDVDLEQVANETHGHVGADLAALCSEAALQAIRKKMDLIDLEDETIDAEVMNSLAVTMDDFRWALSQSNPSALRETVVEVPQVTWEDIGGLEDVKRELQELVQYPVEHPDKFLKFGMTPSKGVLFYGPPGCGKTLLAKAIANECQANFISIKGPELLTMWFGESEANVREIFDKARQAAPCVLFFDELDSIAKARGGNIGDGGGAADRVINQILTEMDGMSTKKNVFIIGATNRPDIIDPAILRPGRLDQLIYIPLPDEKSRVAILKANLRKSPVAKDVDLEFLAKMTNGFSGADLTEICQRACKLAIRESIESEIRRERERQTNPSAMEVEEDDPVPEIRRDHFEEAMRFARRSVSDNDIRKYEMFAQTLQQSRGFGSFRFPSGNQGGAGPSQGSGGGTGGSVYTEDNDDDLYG

SMILES | IC50 [nM]
NC(=O)CCNC1CCN(c2cccc(-c3cc4cc(F)ccc4[nH]3)c2)CC1 | 760
Cc1ccc(N2CCC(NCCN3CCN(C(C)C)CC3)CC2)cc1-c1cc2ccccc2[nH]1 | 140
CC(C)(C)OC(=O)N1CCN(CCNC2CCN(c3cccc(-c4cc5ccccc5[nH]4)c3)CC2)CC1 | 2400
CN1CCC(NC2CCN(c3cccc(-c4cc5cc(F)ccc5[nH]4)c3)CC2)CC1 | 180
CN1CCN(C2(CNC3CCN(c4cccc(-c5cc6cc(S(C)(=O)=O)ccc6[nH]5)c4)CC3)CCC2)CC1 | 16000
CC(C)N1CCN(CCNC2CCN(c3cccc(-c4cc5c(F)cccc5[nH]4)c3)CC2)CC1 | 1300
CC(C)(C)N1CCN(CCNC2CCN(c3cccc(-c4cc5ccccc5[nH]4)c3)CC2)CC1 | 130
Cc1ccc2[nH]c(-c3cccc(N4CCC(NCCN5CCN(C(C)C)CC5)CC4)c3)cc2c1 | 200
CC(C)N1CCN(CCNC2CCN(c3cccc(-c4cc5ccc(C#N)cc5[nH]4)c3)CC2)CC1 | 6100
CC(C)N1CCN(CCNC2CCN(c3cccc(-c4nc5ccccc5n4-c4ccc(C(c5ccccc5)c5ccccc5)cc4)c3)CC2)CC1 | 7100
CC(C)N1CCN(CCNC2CCN(c3cccc(-c4cc5cc(C(F)(F)F)ccc5[nH]4)c3)CC2)CC1 | 6000
CC(C)N1CCN(C2(CNC3CCN(c4cccc(-c5cc6cc(F)ccc6[nH]5)c4)CC3)COC2)CC1 | 41
CC(C)N1CCN(CCNC(=O)CC2CCN(c3cccc(-c4cc5ccccc5[nH]4)c3)CC2)CC1 | 7340
CC(C)N1CCC(NC2CCN(c3cccc(-c4cc5ccccc5[nH]4)c3)CC2)CC1 | 130
COC(=O)c1ccc2[nH]c(-c3cccc(N4CCC(NCCN5CCN(C(C)C)CC5)CC4)c3)cc2c1 | 150
c1cc(-c2cc3ccccc3[nH]2)cc(N2CCC(NCCN3CCOCC3)CC2)c1 | 910
Cc1ccc(CNC2CCN(c3cccc(-c4cc5ccccc5[nH]4)c3)CC2)o1 | 890
[N-]=[N+]=Nc1ccc(NCCNC2CCN(c3cccc(-c4cc5ccccc5[nH]4)c3)CC2)cc1 | 5600
Cc1ccc(N2CCC(NC3CCN(C)CC3)CC2)cc1-c1cc2ccccc2[nH]1 | 350
CCCCNC1CCN(c2cccc(-c3cc4ccccc4[nH]3)c2)CC1 | 1700
Cc1c(-c2cc3ccccc3[nH]2)cccc1N1CCC(NC2CCN(C)CC2)CC1 | 15000
Cn1ncnc1CCNC1CCN(c2cccc(-c3cc4cc(C#N)ccc4[nH]3)c2)CC1 | 890

SMILES | IC50 [nM]
Cc1ccc(N2CCC(NCCN3CCN(C(C)C)CC3)CC2)cc1-c1cc2cc(F)ccc2[nH]1 | 25
Cc1ccc(N2CCC(NC3CCN(C(C)C)CC3)CC2)cc1-c1cc2cc(C#N)ccc2[nH]1 | 110
CC(C)N1CCN(CCNC2CCN(c3cccc(-c4cc5cc(S(F)(F)(F)(F)F)ccc5[nH]4)c3)CC2)CC1 | 21000
CN1CCN(CCCNC2CCN(c3cccc(-c4cc5ccccc5[nH]4)c3)CC2)CC1 | 210
CC(C)N1CCN(C(=O)CCNC2CCN(c3cccc(-c4cc5cc(F)ccc5[nH]4)c3)CC2)CC1 | 120
CC(C)N1CCC(NC2CCN(c3cccc(-c4cc5cc(S(C)(=O)=O)ccc5[nH]4)c3)CC2)CC1 | 20000
c1cc(-c2cc3ccccc3[nH]2)cc(N2CCC(NCCN3CCCNCC3)CC2)c1 | 320
CC(C)N1CCN(C2CCN(c3cccc(-c4cc5cc(F)ccc5[nH]4)c3)CC2)CC1 | 4300
Fc1ccc2[nH]c(-c3cccc(N4CCC(NCc5cccnc5)CC4)c3)cc2c1 | 340
CC(C)N1CCN(C2(CNC3CCN(c4cccc(-c5cc6cc(C#N)ccc6[nH]5)c4)CC3)CCC2)CC1 | 15
CC(C)N1CCN(CCC2CCN(c3cccc(-c4cc5ccccc5[nH]4)c3)CC2)CC1 | 6000
c1ccc(CNC2CCN(c3cccc(-c4cc5ccccc5[nH]4)c3)CC2)cc1 | 960
O=C1CN(CCNC2CCN(c3cccc(-c4cc5ccccc5[nH]4)c3)CC2)CCN1 | 850
Cc1ccc(N2CCC(NC3CCN(C)CC3)CC2)cc1-c1cc2cc(F)ccc2[nH]1 | 82
CN1CCN(C(=O)CCNC2CCN(c3cccc(-c4cc5cc(F)ccc5[nH]4)c3)CC2)CC1 | 150
O=C(CCNC1CCN(c2cccc(-c3cc4cc(F)ccc4[nH]3)c2)CC1)N1CCCCC1 | 1400
CCOC(=O)Nc1cccc(N2CCC(NCCN3CCN(C(C)C)CC3)CC2)c1 | 1700
CC(C)N1CCN(CC=C2CCN(c3cccc(-c4cc5ccccc5[nH]4)c3)CC2)CC1 | 5800
CON(C)C(=O)c1ccc2[nH]c(-c3cccc(N4CCC(NCCN5CCN(C(C)C)CC5)CC4)c3)cc2c1 | 16000
c1cncc(CNC2CCN(c3cccc(-c4cc5ccccc5[nH]4)c3)CC2)c1 | 740
CC(C)N1CCN(CCNC2CCN(c3cccc(-c4cc5cccc(F)c5[nH]4)c3)CC2)CC1 | 3300
CCN1CCN(CCNC2CCN(c3cccc(-c4cc5ccccc5[nH]4)c3)CC2)CC1 | 190

SMILES | IC50 [nM]
CC(C)N1CCN(CCNC2CCN(c3cccc(-c4cc5ccccc5s4)c3)CC2)CC1 | 24000
CC(C)N1CCCN(CCNC2CCN(c3cccc(-c4cc5ccccc5[nH]4)c3)CC2)CC1 | 150
CC(C)N1CCN(CCNC2CCN(c3cccc(-c4cc5cc(F)ccc5[nH]4)c3)CC2)CC1 | 27
CC(C)N1CCC(NC2CCN(c3cccc(-c4cc5cc(Cl)ccc5[nH]4)c3)CC2)CC1 | 92
CC(C)N1CCC(NC2CCN(c3cccc(-c4cc5cc(F)ccc5[nH]4)c3)CC2)CC1 | 49
COc1ccc2[nH]c(-c3cccc(N4CCC(NCCN5CCN(C(C)C)CC5)CC4)c3)cc2c1 | 660
COC(=O)CCNC1CCN(c2cccc(-c3cc4cc(F)ccc4[nH]3)c2)CC1 | 1300
Cc1ccc(N2CCC(NCC3(N4CCN(C(C)C)CC4)CCC3)CC2)cc1-c1cc2cc(C#N)ccc2[nH]1 | 100
Cc1ccc(N2CCC(NC3CCN(C(C)C)CC3)CC2)cc1-c1cc2ccccc2[nH]1 | 500
CC(C)N1CCN(CCNC2CCN(c3cccc(-c4cc5cc(C(N)=O)ccc5[nH]4)c3)CC2)CC1 | 87
CN(C)CCNC1CCN(c2cccc(-c3cc4cc(F)ccc4[nH]3)c2)CC1 | 710
NC1CCN(c2cccc(-c3cc4ccccc4[nH]3)c2)CC1 | 1800
FC1(F)CCN(CCNC2CCN(c3cccc(-c4cc5ccccc5[nH]4)c3)CC2)CC1 | 2400
CCC(C)N1CCN(CCNC2CCN(c3cccc(-c4cc5ccccc5[nH]4)c3)CC2)CC1 (stereo not drawn) | 110
FC(F)(F)C(c1ccccc1)N1CCN(CCNC2CCN(c3cccc(-c4cc5ccccc5[nH]4)c3)CC2)CC1 (stereo not drawn) | 17000
CC(C)N1CCC(NC2CCN(c3cccc(-c4cc5cc(S(=O)(=O)NCc6ccccc6)ccc5[nH]4)c3)CC2)CC1 | 7500
CC(C)N1CCN(CCNC2CCN(c3cccc(-c4cc5cc(N=[N+]=[N-])ccc5[nH]4)c3)CC2)CC1 | 200
CC(C)N1CCN(C2(CNC3CCN(c4cccc(-c5cc6cc(C#N)ccc6[nH]5)c4)CC3)COC2)CC1 | 110
CC(C)N1CCN(CCNC2CCN(c3cccc(-c4cc5ccccc5[nH]4)c3)CC2)C(=O)C1 | 1900
c1cc(-c2cc3ccccc3[nH]2)cc(N2CCC(NCCN3CCCC3)CC2)c1 | 880

same assay, conditions: p97 ADP-Glo assay, differ from Table 2; read-out: ADP-Glo IC50

SMILES | IC50 [nM]
CC(C)N1CCN(CCNC2CCN(c3cccc(-c4cc5cc([N+](=O)[O-])ccc5[nH]4)c3)CC2)CC1 [Compound 23, N-(2-(4-Isopropylpiperazin-1-yl)ethyl)-1-(3-(5-nitro-1H-indol-2-yl)phenyl)piperidin-4-amine] | 40 ± 40

same assay, conditions: p97 ADP-Glo assay; read-out: inhibitor of the AAA ATPase (potency in words)

SMILES | IC50 [nM]
CC(C)N1CCN(CCNC2CCN(c3cccc(-c4cc5cc([N+](=O)[O-])ccc5[nH]4)c3)CC2)CC1 [Compound 23, N-(2-(4-Isopropylpiperazin-1-yl)ethyl)-1-(3-(5-nitro-1H-indol-2-yl)phenyl)piperidin-4-amine] | 40
